Values after ≈ are worked out from the molar mass of the structure shown. Active and inactive are the calls of the source. The rule behind the calls is not given here.
Columns and labels:
Micrococcus luteus [1] = assay: Antibacterial against Micrococcus luteus ATCC 9341 after 24 hrs by NCCLS M7-A6 method; type: functional
Bacillus subtilis [2] = assay: Antibacterial against Bacillus subtilis ATCC 6633 after 24 hrs by NCCLS M7-A6 method; type: functional
Bacillus cereus [3] = assay: Antibacterial against Bacillus cereus ATCC 11778 after 24 hrs by NCCLS M7-A6 method; type: functional
Staphylococcus aureus [4] = assay: Antibacterial against Staphylococcus aureus ATCC 6538 after 24 hrs by NCCLS M7-A6 method; type: functional; conditions: ATCC 6538, 24 h
Staphylococcus aureus [5] = assay: Antibacterial against Staphylococcus aureus ATCC 6538P after 24 hrs by NCCLS M7-A6 method; type: functional
Escherichia coli [6] = assay: Antibacterial against Escherichia coli ATCC 10536 after 24 hrs by NCCLS M7-A6 method; type: functional; conditions: ATCC 10536, 24 h
Staphylococcus aureus [7] = assay: Antibacterial against Staphylococcus aureus ATCC 6538 at 20 mg/mL after 24 hrs by NCCLS M7-A6 method; type: functional, organism-based
Staphylococcus aureus [8] = assay: Antibacterial against Staphylococcus aureus ATCC 6538P at 20 mg/mL after 24 hrs by NCCLS M7-A6 method; type: functional, organism-based
Escherichia coli [9] = assay: Antibacterial against Escherichia coli ATCC 8739 at 20 mg/mL after 24 hrs by NCCLS M7-A6 method; type: functional, organism-based
Escherichia coli [10] = assay: Antibacterial against Escherichia coli ATCC 10536 at 20 mg/mL after 24 hrs by NCCLS M7-A6 method; type: functional, organism-based
786-0 = assay: Cytotoxicity against human 786-0 cells assessed as cell growth inhibition at 10^-5 M; type: functional, cell-based
HL-60 = assay: Cytotoxicity against human HL60 cells assessed as cell growth inhibition at 10^-5 M; type: functional, cell-based
Cancer cell lines [11] = assay: Cytotoxicity against human lung cancer cells assessed as cell growth inhibition at 10^-5 M; type: functional, cell-based
Leukemia cell = assay: Cytotoxicity against human leukemia cells assessed as cell growth inhibition at 10^-5 M; type: functional, cell-based
Cancer cell lines [12] = assay: Cytotoxicity against human colon cancer cells assessed as cell growth inhibition at 10^-5 M; type: functional, cell-based
Cancer cell lines [13] = assay: Cytotoxicity against human CNS cancer cells assessed as cell growth inhibition at 10^-5 M; type: functional, cell-based
Melanoma cell = assay: Cytotoxicity against human melanoma cells assessed as cell growth inhibition at 10^-5 M; type: functional, cell-based
Cancer cell lines [14] = assay: Cytotoxicity against human ovarian cancer cells assessed as cell growth inhibition at 10^-5 M; type: functional, cell-based
Cancer cell lines [15] = assay: Cytotoxicity against human renal cancer cells assessed as cell growth inhibition at 10^-5 M; type: functional, cell-based
Cancer cell lines [16] = assay: Cytotoxicity against human prostate cancer cells assessed as cell growth inhibition at 10^-5 M; type: functional, cell-based
Cancer cell lines [17] = assay: Cytotoxicity against human breast cancer cells assessed as cell growth inhibition at 10^-5 M; type: functional, cell-based
Micrococcus luteus [18] = assay: Antibacterial against Micrococcus luteus ATCC 10240 at 20 mg/mL after 24 hrs by NCCLS M7-A6 method; type: functional, organism-based
Bacillus subtilis [19] = assay: Antibacterial against Bacillus subtilis ATCC 6633 at 20 mg/mL after 24 hrs by NCCLS M7-A6 method; type: functional, organism-based
Bacillus cereus [20] = assay: Antibacterial against Bacillus cereus ATCC 11778 at 20 mg/mL after 24 hrs by NCCLS M7-A6 method; type: functional, organism-based
[21] = Micrococcus luteus, ATCC 9341, 24 h, read-out: MIC
[22] = Bacillus subtilis, ATCC 6633, 24 h, read-out: MIC
[23] = Bacillus cereus, ATCC 11778, 24 h, read-out: MIC

MIC (Micrococcus luteus [1]; [21]) [mM] | MIC (Bacillus subtilis [2]; [22]) [mM] | MIC (Bacillus cereus [3]; [23]) [mM] | MIC (Staphylococcus aureus [4]) [mM] | MIC (Staphylococcus aureus [5]) [mM] | MIC (Escherichia coli [6]) [mM] | Compound | Activity (Escherichia coli [9]) | further results
1.5 (≈ 548 µg/mL) | 24.3 (≈ 8880 µg/mL) | 24.3 (≈ 8880 µg/mL) | 24.3 (≈ 8880 µg/mL) | 24.3 (≈ 8880 µg/mL) | 24.3 (≈ 8880 µg/mL) | CC(=O)c1cc2c(C)cc(=O)oc2cc1OCCN(C)Cc1ccccc1 | – | –
8.4 (≈ 2200 µg/mL) | 8.4 (≈ 2200 µg/mL) | 8.4 (≈ 2200 µg/mL) | – | 67.2 (≈ 17600 µg/mL) | 16.8 (≈ 4390 µg/mL) | CCN(CC)CCOc1ccc2ccc(=O)oc2c1 | – | Activity (Staphylococcus aureus [7]): inactive
2 (≈ 551 µg/mL) | 2 (≈ 551 µg/mL) | 2 (≈ 551 µg/mL) | 32.1 (≈ 8840 µg/mL) | 32.1 (≈ 8840 µg/mL) | 8 (≈ 2200 µg/mL) | CCN(CC)CCOc1ccc2c(C)cc(=O)oc2c1 | – | –
6.5 (≈ 2140 µg/mL) | 39.1 (≈ 12900 µg/mL) | 26.1 (≈ 8600 µg/mL) | 39.1 (≈ 12900 µg/mL) | 39.1 (≈ 12900 µg/mL) | 13 (≈ 4280 µg/mL) | CC(=O)c1c(OCCN2CCCCC2)ccc2c(C)cc(=O)oc12 | – | –
68.7 (≈ 15000 µg/mL) | 45.8 (≈ 9990 µg/mL) | 22.9 (≈ 5000 µg/mL) | 68.7 (≈ 15000 µg/mL) | – | – | CC(=O)c1c(O)ccc2c(C)cc(=O)oc12 | inactive | Activity (Staphylococcus aureus [8]): inactive; Activity (Escherichia coli [10]): inactive
12.3 (≈ 4220 µg/mL) | 24.6 (≈ 8450 µg/mL) | 24.6 (≈ 8450 µg/mL) | 24.6 (≈ 8450 µg/mL) | 24.6 (≈ 8450 µg/mL) | 49.2 (≈ 16900 µg/mL) | CC(=O)c1c(OCCN2CCCCC2C)ccc2c(C)cc(=O)oc12 (configuration not stated) | – | growth inhibition (GI) (786-0): Active; growth inhibition (GI) (HL-60): Active
– | – | – | 7.1 | 7.1 | 7.1 | CCN(CC)CCOc1cc2oc(=O)cc(C)c2cc1C(C)=O.Cl | – | MIC (Micrococcus luteus [1]): 1.8 mM; MIC (Bacillus subtilis [2]): 0.4 mM; MIC (Bacillus cereus [3]): 0.4 mM
15.4 (≈ 4430 µg/mL) | 30.9 (≈ 8880 µg/mL) | 30.9 (≈ 8880 µg/mL) | 46.3 (≈ 13300 µg/mL) | 61.8 (≈ 17800 µg/mL) | 30.9 (≈ 8880 µg/mL) | CC1CCCCN1CCOc1ccc2ccc(=O)oc2c1 (configuration not stated) | – | –
– | – | – | – | – | – | CCN(CC)CCOc1cc2oc(=O)cc(C)c2cc1C(C)=O [listing 1 of 2 here] | – | MIC (Micrococcus luteus [1]): 31.5 mM (≈ 10000 µg/mL); MIC (Bacillus subtilis [2]): 31.5 mM (≈ 10000 µg/mL); MIC (Bacillus cereus [3]): 63 mM (≈ 20000 µg/mL)
2 (≈ 635 µg/mL) | 3.9 (≈ 1240 µg/mL) | 3.9 (≈ 1240 µg/mL) | 3.9 (≈ 1240 µg/mL) | 3.9 (≈ 1240 µg/mL) | – | CCN(CC)CCOc1ccc2c(C)cc(=O)oc2c1C(C)=O | – | –
6.6 (≈ 2270 µg/mL) | 1.6 (≈ 549 µg/mL) | 1.6 (≈ 549 µg/mL) | 26.3 (≈ 9030 µg/mL) | 26.3 (≈ 9030 µg/mL) | 26.3 (≈ 9030 µg/mL) | CC(=O)c1cc2c(C)cc(=O)oc2cc1OCCN1CCCCC1C (configuration not stated) | inactive | –
1.7 (≈ 560 µg/mL) | 1.7 (≈ 560 µg/mL) | 1.7 (≈ 560 µg/mL) | 13.3 (≈ 4380 µg/mL) | 6.7 (≈ 2210 µg/mL) | 13.3 (≈ 4380 µg/mL) | CC(=O)c1cc2c(C)cc(=O)oc2cc1OCCN1CCCCC1 | – | –
7.4 (≈ 2250 µg/mL) | 2.9 (≈ 880 µg/mL) | 2.9 (≈ 880 µg/mL) | 44.1 (≈ 13400 µg/mL) | 44.1 (≈ 13400 µg/mL) | 14.7 (≈ 4460 µg/mL) | Cc1cc(=O)oc2cc(OCCN(C(C)C)C(C)C)ccc12 | – | growth inhibition (GI) (786-0): inactive; growth inhibition (GI) (Cancer cell lines [11]): inactive; growth inhibition (GI) (Leukemia cell): inactive; growth inhibition (GI) (Cancer cell lines [12]): inactive; growth inhibition (GI) (Cancer cell lines [13]): inactive; growth inhibition (GI) (Melanoma cell): inactive; growth inhibition (GI) (Cancer cell lines [14]): inactive; growth inhibition (GI) (Cancer cell lines [15]): inactive; growth inhibition (GI) (Cancer cell lines [16]): inactive; growth inhibition (GI) (Cancer cell lines [17]): inactive
– | – | – | – | – | – | CCN(CC)CCOc1cc2oc(=O)cc(C)c2cc1C(C)=O [listing 2 of 2 here] | inactive | Activity (Staphylococcus aureus [7]): inactive; Activity (Staphylococcus aureus [8]): inactive; Activity (Escherichia coli [10]): inactive
25 (≈ 8640 µg/mL) | – | – | – | – | – | CC(=O)c1c(OCCN(C(C)C)C(C)C)ccc2c(C)cc(=O)oc12 | inactive | Activity (Micrococcus luteus [18]): inactive; Activity (Bacillus subtilis [19]): inactive; Activity (Bacillus cereus [20]): inactive; Activity (Staphylococcus aureus [7]): inactive; Activity (Staphylococcus aureus [8]): inactive; Activity (Escherichia coli [10]): inactive
6 (≈ 2190 µg/mL) | 2.4 (≈ 877 µg/mL) | 2.4 (≈ 877 µg/mL) | 35.7 (≈ 13000 µg/mL) | 23.8 (≈ 8700 µg/mL) | 35.7 (≈ 13000 µg/mL) | CC(=O)c1c(OCCN(C)Cc2ccccc2)ccc2c(C)cc(=O)oc12 | inactive | –
